# Test results: US20230321033A1, “THIOPHEN COMPOUNDS FOR USE IN THE TREATMENT OF RENAL FIBROSIS” (ENYO PHARMA, priority 2020, published 2023)
# “Also recorded” adds a separate entry of the source.
# Legend:
# [1] = test system: kidneys of NASH mice (AMLN diet); assay: Renal inflammation in NASH mouse model, CD3 stained kidney sections; type: in vivo; settings: mice on AMLN diet 30 weeks, then PO treatment 8 weeks twice a day, 7 or 20 mg/kg; kidneys at sacrifice
# Description: (§1) Compound #157 was evaluated in a mouse model of NASH. Mice were fed with an AMLN diet (high in fat (40%), fructose (22%) and cholesterol (2%)) for 30 weeks prior treatment with Compound #157 for 8 weeks twice a day at a dose of 7 or 20 mg/kg.
# (§2) The livers and kidneys were collected at sacrifice. Fibrosis, in particular tubulointerstitial fibrosis, has been evaluated by quantification of the picrosirius red (PSR) staining positive areas. Inflammation has been quantified on CD3 stained sections.
# [2] = test system: kidneys of NASH mice (AMLN diet); assay: Renal fibrosis in NASH mouse model, picrosirius red (PSR) staining of kidneys; type: in vivo; settings: mice on AMLN diet 30 weeks, then PO treatment 8 weeks twice a day, 7 or 20 mg/kg; kidneys at sacrifice
# Description: as §1, §2
structure (smiles),measurement,setting,value
O=C(Nc1scc(C2CCc3ccccc3C2)c1C(=O)O)c1ccccc1 (stereo not drawn) [Compound #157],decrease of renal inflammation (CD3 stained sections),[1],50%
same,"renal inflammation (lymphocytes infiltration), quantified on CD3 stained sections",[1],attenuate significantly inflammation; also recorded: significantly decreases renal inflammation
same,"renal fibrosis (tubulointerstitial), quantification of picrosirius red (PSR) staining positive areas",[2],completely resolve fibrosis; also recorded: significantly decreases renal fibrosis
